The values that follow come from patent publication US10472610B2, “Method for generating pancreatic bud cells and therapeutic agent for pancreatic disease containing pancreatic bud cells” (Kyoto University, priority 2014, dated 2019).

Assay [1] concerns iPS cell line 585A1. In words: Adherent culture protocol, Y-27632 during Stage 3, flow cytometry of PDX1/NKX6.1. As to conditions: four days. Format: cell-based, human. How it is done:
Cells of iPS cell line 585A1 were seeded on a Matrigel coated 24 well plate at a density of 2.0×10^5 cells/well, and cultured in RPMI 1640 Medium (Nacalai Tesque, Inc.) supplemented with 2% B-27 (Life Technologies), 100 ng/ml of activin A (R&D systems), 3 μM of CHIR99021 (Axon Medchem) and 10 μM of Y-27632 (Wako Pure Chemical Industries, Ltd.) for one day. The medium was exchanged with RPMI 1640 Medium containing 100 ng/ml of activin A, 1 μM of CHIR99021 and 2% B-27 (Life Technologies), and the cells were cultured for two days. The medium was then exchanged with RPMI 1640 Medium containing 100 ng/ml of activin A and 2% B-27 (Life Technologies), and the cells were cultured for one day.
The medium of the culture obtained in Stage 1 was exchanged with Improved MEM Zinc Option (Invitrogen) containing 50 ng/ml of KGF (R&D systems) and 1% B-27 (Life Technologies) and the cells were cultured for three days. Subsequently, the medium was exchanged with Improved MEM Zinc Option containing 50 ng/ml of KGF, 100 ng/ml of Noggin (Peprotech), 10 nM of TTNPB (Santa Cruz Biotechnology), 0.5 μM of 3-Keto-N-aminoethyl-N′-aminocaproyldihydrocinnamoyl Cyclopamine (KAAD-cyclopamine or K-CYC) (Toronto Research Chemicals) and 1% B-27, and the cells were cultured for three days.
A general note: Flow cytometry measures light scatter and fluorescence of single cells or particles in a stream.

In assay [2] the test system is iPS cell line 585A1. In words: Modified adherent culture protocol, additives during Stage 3, flow cytometer or image analyzer. Type of assay: cell-based, human. As to conditions: for ratio of NKX6.1^+ cells / ratio of PDX1^+NKX6.1^+ cells: compound in Stage 3 medium, modified protocol, 4 days. How it is done:
Cells of iPS cell line 585A1 were seeded on a Matrigel coated 24 well plate at a density of 2.0×10^5 cells/well, and the cells were cultured in RPMI 1640 Medium (Nacalai Tesque, Inc.) supplemented with 2% B-27 (Life Technologies), to which 100 ng/ml of activin A (R&D systems), 3 μM of CHIR99021 (Axon Medchem) and 10 μM of Y-27632 (Wako Pure Chemical Industries, Ltd.) were added, for one day. The medium was exchanged with RPMI 1640 Medium containing 100 ng/ml of activin A, 1 μM of CHIR99021 and 2% B-27 (Life Technologies), and the cells were cultured for two days. In addition, the medium was exchanged with RPMI 1640 Medium containing 100 ng/ml of activin A and 2% B-27 (Life Technologies), and the cells were cultured for one day.
The medium was exchanged with Improved MEM Zinc Option (Invitrogen) containing 50 ng/ml of KGF (R&D systems) and 1% B-27 (Life Technologies), and the cells were cultured for 3 or 4 days. Subsequently, the medium was exchanged with Improved MEM Zinc Option containing 50 ng/ml of KGF, 100 ng/ml of Noggin (Peprotech), 10 nM of TTNPB (Santa Cruz Biotechnology), 0.5 μM of 3-Keto-N-aminoethyl-N′-aminocaproyldihydrocinnamoyl Cyclopamine (KAAD-cyclopamine or K-CYC) (Toronto Research Chemicals) and 1% B-27 and the cells were cultured for 2 or 3 days.

The test system of a further assay is human ES cell line KhES3. As to conditions: added in Stage 3 on day 2 or after for 1-2 days.

Description for human ES cell line KhES3: In the figure, arrows indicate time periods when ALK5 inhibitor II was added to the medium. […] The expressions were measured by a flow cytometer. In the figure, numbers indicate the ratio of PDX1^+ and NKX6.1^+ cells contained in the culture.
The cells obtained in Stage 2 were dissociated into single cells with trypsin and seeded on a Low Attachment 96-well plate (Lipidure Coat, NOF) at a density of 3.0×10^3 to 3.0×10^4 cells/well. Improved MEM Zinc Option (15×10^4 cells/ml) containing 100 ng/ml of KGF, 100 ng/ml of Noggin, 50 ng/ml of EGF (R&D systems), 10 μM of Y-27632 and 1% B-27 was added to the plate, and the cells were further cultured for 4 to 20 days. During this time period, the medium was exchanged with fresh medium every 4 days. As a control, cells obtained in Stage 2 were dissociated into single cells with trypsin and seeded on a Matrigel coated 24 well plate (Greiner) at a density of 6.0×10^4 to 4.8×10^5 cells/cm^2 and cultured under adhesive conditions in the same medium for four days. […]
The cells obtained at four days after the start of Stage (S3d4) were treated with BD Cytofix/Cytoperm™ Kit, stained with an anti-PDX1 antibody (R&D systems) and an anti-NKX6.1 antibody (University of Iowa), and the ratio of PDX1^+ cells as well as the ratio of PDX1^+NKX6.1^+ cells were determined by using a flow cytometer.

Turning to `C[C@@H](N)[C@H]1CC[C@H](C(=O)Nc2ccncc2)CC1` [Y-27632], the “concentration at which the effect on the ratio of PDX1^+NKX6.1^+ cells was highest” value in the assay with iPS cell line 585A1 [1] (Stage 3, adherent culture) turned out to be 100 µM. Moreover, in the assay with iPS cell line 585A1 [1] (compound in Stage 3 medium, adherent culture), the “ratio of PDX1^+NKX6.1^+ cells” value is “increased in a concentration-dependent manner”.

Consider `Cc1cncc2cccc(S(=O)(=O)N3CCCNC[C@@H]3C)c12` [H-1152], for which the “concentration at which the effect on the ratio of NKX6.1^+ cells was highest” value with iPS cell line 585A1 [2] (Stage 3, modified protocol) is 50 µM. Besides, in the assay with iPS cell line 585A1 [2], the “ratio of NKX6.1^+ cells” value was “increased in a concentration-dependent manner”.

With `CN(C)CCOc1cc(-c2cn[nH]c2)ccc1NC(=O)C1COc2ccccc2O1` (centres unmarked) [SR3677], the “concentration at which the effect on the ratio of NKX6.1^+ cells was highest” value in the assay with iPS cell line 585A1 [2] (Stage 3, modified protocol) was found to be 5 µM. Also, in the assay with iPS cell line 585A1 [2], the “ratio of NKX6.1^+ cells” value is listed as “increased in a concentration-dependent manner”.

For `O=S(=O)(c1cccc2cnccc12)N1CCCNCC1` [Fasudil], in the assay with iPS cell line 585A1 [2] (Stage 3, modified protocol), the “concentration at which the effect on the ratio of PDX1^+NKX6.1^+ cells was highest” value is 50 µM. For the same compound, in the assay on iPS cell line 585A1 [2], the “ratio of PDX1^+NKX6.1^+ cells” value is “increased in a concentration-dependent manner”.

For the compound `Cc1ccc2c(c1)C(=O)C1(O)CCN(c3ccccc3)C1=N2` (centres unmarked) [Blebbistatin], in the assay with iPS cell line 585A1 [2] (Stage 3, modified protocol), the “concentration from which the ratio of PDX1^+NKX6.1^+ cells increased” value amounted to 5 µM and the “concentration up to which the effect on the ratio of PDX1^+NKX6.1^+ cells was high” value was “up to 20 μM”. Besides, in the assay with iPS cell line 585A1 [2], the “ratio of PDX1^+NKX6.1^+ cells” value is recorded as “increased”.

Consider `CCn1c(-c2nonc2N)nc2cnc(Oc3cccc(NC(=O)c4ccc(OCCN5CCOCC5)cc4)c3)cc21` [GSK269962], for which the “concentration at which the effect on the ratio of NKX6.1^+ cells was highest” value with iPS cell line 585A1 [2] (Stage 3, modified protocol) is 1 µM. In addition, the “ratio of NKX6.1^+ cells” value in the assay with iPS cell line 585A1 [2] was “increased in a concentration-dependent manner”.

Take `Cc1cccc(-c2n[nH]cc2-c2ccc3ncccc3n2)n1` [ALK5 inhibitor II, 2-[3-[6-methylpyridin-2-yl]-1H-pyrazol-4-yl]-1,5-naphthyridine]: the “ratio of PDX1^+NKX6.1^+ cells” value with human ES cell line KhES3 is reported as “increased”.
